Results from US6881739B1, “Use of cortisol antagonists in the treatment of heart failure” (priority 1999, dated 2005).

Tested on: heart failure
Experiment: Treatment of heart failure patients with ketoconazole (case observations, Examples 1 and 2)
Assay type: in vivo, human
Procedure: Also, moderate dyspnea and increased heart rate as well as an increase in liver size (indicative of fluid retention in the liver). Patient being treated for heart failure with lisinopril (Zestril®) Treatment: 400 mg of a racemate of the Cis-2S,4R and Cis-2R,4S isomers of ketoconazole (Fungoral™ tablets—Janssen-Cilag, Belgium) was administered at 10.00 pm every day for a 3 month period. Observations: Body weight reduced by 3.8 kg—attributable to a reduction in fluid retention. Heart rate fell from 72 beats/min to 62 beats/min. Reduction in liver size of 10% and a resulting reduction in liver transaminases • S-ASAT reduced from 0.44 to 0.30 μKat/L • S-ALAT reduced from 1.0 to 0.39 μKat/L Dyspnea, oedema of lower limbs and body fluid in the lungs reduced. Physical health as measured by a subnormal physical exercise test (Faggiano, P. et al. supra) improved by 15%.
Patient being treated for heart failure with furosemid (40 mg/day)
Treatment: As for Example 1.

[1] = Subject 1, 400 mg daily for 3 months
[2] = Subject 2, treatment as for Example 1

Structure (SMILES): CC(=O)N1CCN(c2ccc(OCC3COC(Cn4ccnc4)(c4ccc(Cl)cc4Cl)O3)cc2)CC1 (racemic) [ketoconazole]
- Body weight reduced by (Subject 1 (on lisinopril), 400 mg at 10.00 pm every day for 3 months, attributable to reduced fluid retention): 3.8 kg
- Dose of co-administered lisinopril (Zestril) could be reduced [1]: half of original dose
- Dyspnea, oedema of lower limbs and body fluid in the lungs [1]: reduced
- Physical health as measured by a subnormal physical exercise test, improved by [1]: 15%
- Reduction in liver size [1]: 10%
- Heart rate after treatment (Subject 1, 400 mg daily for 3 months, fell from 72 beats/min): 62 beats/min
- S-ASAT after treatment (Subject 1, 400 mg daily for 3 months, reduced from 0.44): 0.30 μKat/L
- S-ALAT after treatment (Subject 1, 400 mg daily for 3 months, reduced from 1.0): 0.39 μKat/L
- Body weight reduced by (Subject 2 (on furosemid 40 mg/day), treatment as for Example 1): 4.2 kg
- Dyspnea, oedema of lower limbs and body fluid in lungs [2]: reduced
- Physical health as measured by a subnormal physical exercise test, improved by [2]: 20%
- Reduction in liver size [2]: 15%
- Time from commencement of treatment until furosemid could be stopped [2]: ≤ 6 weeks
- Heart rate after treatment (Subject 2, treatment as for Example 1, fell from 74 beats/min): 60 beats/min
- S-ASAT after treatment (Subject 2, treatment as for Example 1, reduced from 0.58): 0.32 μKat/L
- S-ALAT after treatment (Subject 2, treatment as for Example 1, reduced from 0.92): 0.68 μKat/L
